Measured values: PubChem BioAssay (NCI)
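All cell lines were grown in 96-well plates and treated with compound for 48 hours. The concentration for full growth arrest is given as TGI.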

Key:
Test in all cases: NCI-60 cell line screen, 48 h
[1] = test system: IGROV1 ovarian
[2] = test system: SF-539 CNS
[3] = test system: DU-145 prostate
[4] = test system: NCI-H460 lung
[5] = test system: M14 melanoma
[6] = test system: SR leukemia
[7] = test system: U251 CNS
[8] = test system: NCI-H23 lung
[9] = test system: RXF 393 renal
[10] = test system: HCT-15 colon
[11] = test system: CCRF-CEM leukemia
[12] = test system: PC-3 prostate
[13] = test system: COLO 205 colon
[14] = test system: SW-620 colon
[15] = test system: HOP-62 NSCLC
[16] = test system: OVCAR-3 ovarian
[17] = test system: 786-0 renal
[18] = test system: MOLT-4 leukemia
[19] = test system: A498 renal
[20] = test system: SN12C renal
[21] = test system: CAKI-1 renal
[22] = test system: TK-10 renal
[23] = test system: HT29 colon
[24] = test system: NCI-H522 lung
[25] = test system: OVCAR-8 ovarian
[26] = test system: SK-MEL-5 melanoma
[27] = test system: SNB-75 CNS
[28] = test system: SK-OV-3 ovarian
[29] = test system: HCT-116 colon
[30] = test system: ACHN renal
[31] = test system: BT-549 breast
[32] = test system: MALME-3M melanoma
[33] = test system: UACC-257 melanoma
[34] = test system: NCI-H226 lung
[35] = test system: UO-31 renal
[36] = test system: OVCAR-4 ovarian
[37] = test system: LOX IMVI melanoma
[38] = test system: SF-295 CNS
[39] = test system: SF-268 CNS
[40] = test system: HS 578T breast
[41] = test system: OVCAR-5 ovarian
[42] = test system: SK-MEL-2 melanoma
[43] = test system: MDA-N
[44] = test system: EKVX NSCLC
[45] = test system: HCC-2998 colon
[46] = test system: RPMI-8226 leukemia
[47] = test system: K-562 leukemia
[48] = test system: NCI/ADR-RES ovarian
[49] = test system: HL-60(TB) leukemia
[50] = test system: HOP-92 NSCLC
[51] = test system: MCF7 breast
[52] = test system: A549 NSCLC
[53] = test system: T-47D breast
[54] = test system: KM12 colon
[55] = test system: SK-MEL-28 melanoma
[56] = test system: SNB-19 CNS

Measured: TGI

Cc1cc(S(=O)(=O)Nc2nc(N)nc(N3CCOCC3)n2)c(SCC(=O)O)cc1Cl
> 10 µM: all assays above
